Measured values: patent publication US20140162974A1, “METHODS FOR MODULATION OF PHOSPHORUS AND FGF23” (Luitpold Pharmaceuticals, Inc., priority 2012, published 2014)
“Also recorded” adds a separate entry of the source.

Legend:
Format in all cases: in vivo, human
Phosphorus = experiment: VIT-23 study: phosphorus at study visits
Procedure: (§1) Subjects with a hemoglobin (Hgb) that meets inclusion requirements and no exclusionary criteria will be offered participation in this 5-6 week study.
(§2) During the Treatment Phase, all subjects received a maximum dose of 1000 mg of IV iron. […] If no reaction occurred, the remainder of the dose (up to 15 mg/kg or 1000 mg including the test dose) was given as per Investigator. The infusion was given only when resuscitative techniques for the treatment of anaphylactic and anaphylactoid reactions were readily available.
(§3) Primary Endpoints included changes in blood and urine markers of phosphate and bone metabolism following IV iron administration. Blood markers include (all performed in morning after 10 hr fast): Serum Phosphate; Serum Potassium; Plasma Fibroblast growth factor 23 via 2nd generation Immutopics C-terminal assay; Serum Vitamin D; 1, 25 dihydroxy Vitamin D (1,25 [OH]2D); 25 hydroxy Vitamin D (250H-D); Serum Osteocalcin; Serum Bone-specific Alkaline phosphatase; Plasma intact Parathyroid hormone; Serum creatinine; Hepcidin; Reticulocyte count; Hemoglobin; Ferritin; Transferrin Saturation (TSAT); and Sample for archive. Urine markers (collected over a 3 hour period in the morning) (ratio of phosphate to creatinine determined to offset inter-patient variability in urine concentration) include: Phosphate; Creatinine; Calcium; Amino acids; Glucose; Albumin; Deoxypyridinoline cross link (Dpd)—a collagen type I cross link that indicates bone resorption; Beta-2-microglobulin; and Sample for archive.
(§4) All subjects had laboratory assessments at Screening, Day 0, Day 1 (24 hrs), Day 7, Day 14, and Day 35. Any subject with a change in phosphate value after Day 0 had additional phosphate measurements at 14 day intervals (following Day 35) until the level returned to normal (as defined by the laboratory reference range). Safety evaluation for all subjects included adverse events, physical examination, including vital signs, and laboratory assessments. Three hour urine collections was also performed on Day 0, Day 1 (24 hrs), Day 7, Day 14, and Day 35. Any subject who withdrew from the study will receive a follow up phone call 30 days after they received study drug.
(§5) The “baseline” was the value at Day 0 prior to administration of any study drug. The value of “n” for the baseline measurement may have be different at each study visit because the baseline values were assessed only for those individuals with data at the given visit.

FGF-23 C-Terminal = experiment: VIT-23 study: plasma FGF-23 C-terminal assay
Procedure: as §1, §2, §3, §4, §5

intact FGF23 (iFGF23) = experiment: Example 3 trial: serum intact FGF23; conditions: for effect on iFGF23 levels: by day 1 (24 hours); for Intact FGF23, Day 1 / Intact FGF23, Day 7 / Intact FGF23, Day 14 / Intact FGF23, Day 35: mean ± standard error, unit from the 3rd table
Procedure: Study visits were on Days 0 (when iron was infused), 1 (24 hours after iron infusion), 7, 14, and 35. The primary objectives were to determine the effect of iron deficiency on cFGF23 and iFGF23 levels and the effect of intravenous iron on iFGF23 and cFGF23 levels.
Randomization occurred centrally via a fax-based system. […] The complete dose was infused over 15 minutes on day 0. […] An initial test dose of 25 mg was administered slowly over 5 minutes.
Laboratory testing of blood and three-hour urine collections was performed at the screening visit and on study days 0 (when iron was infused), 1 (24 hours after iron infusion), 7, 14, and 35 (see e.g., FIG. 2A). Any subject who experienced a reduction in serum phosphate below the normal range after day 0 underwent additional phosphate measurements at 14 day intervals following day 35 until the level returned to the normal reference range. Safety evaluations of all subjects included ascertainment of adverse events, physical examinations at all study visits, and laboratory assessments. Any subject who withdrew from the study received a follow-up phone call to ascertain adverse events 30 days after they received study drug.
Blood and urine samples were sent to a central laboratory for analysis (Covance Central Laboratory Service, Indianapolis, Ind.). Hemoglobin, blood counts, iron indices, electrolytes, and serum and urinary phosphate and creatinine were measured with standard, automated, multi-analyte techniques. Urinary fractional excretion of phosphate (FEPi) was calculated from the three-hour, morning urine collections as urinary phosphate x serum creatinine/serum phosphate x urinary creatinine. Serum levels of 25-hydroxyvitamin D and 1,25-dihydroxyvitamin D were measured in duplicate by radioimmunoassay (DiaSorin, Stillwater, Minn.) with intra-assay coefficients of variation (CV)<11.6%. Plasma C-terminal FGF23 (cFGF23) was measured in duplicate in EDTA-plasma samples using a human FGF23 immunometric assay capable of detecting both the intact peptide and its C-terminal fragments (Immutopics, San Clemente, Ca) with intra-assay CV≦3.8%. Because cFGF23 testing was performed in parallel with rolling enrollment and follow-up, all cFGF23 assay plates tested combinations of baseline and post-intervention samples from multiple study participants. Serum intact FGF23 (iFGF23) was measured in batches of baseline and post-intervention samples from multiple study participants at study end using an immunometric assay that detects the intact peptide exclusively (Kyowa Medex Company, Shizuoka, Japan) with intra-assay CV<2.7%. Serum hepcidin levels were measured on days 0, 7, and 35 using an enzyme-linked immunosorbent assay (Intrinsic LifeSciences, La Jolla, Calif.) with intra-assay CV≦19%. Urinary amino acids, glucose, albumin, and beta 2 microglobulin were measured to test for the possibility of global proximal tubular dysfunction. Urinary deoxypyridinoline cross link, and serum osteocalcin and bone-specific alkaline phosphatase were measured to assess bone turnover.
Baseline characteristics are presented as mean±standard error for continuous variables and as proportions for categorical variables. The association between iron indices and baseline and change in FGF23 levels was assessed with Spearman correlations. Restricted maximum likelihood-based repeated measures analyses (linear mixed models) that considered the effects of treatment, visit, and treatment x time interaction, with baseline values treated as a fixed covariate were used for the primary analyses of mean changes from baseline in continuous markers of phosphate homeostasis. The models employed unstructured covariance structures without imputing missing values. All outcome variables that were not normally distributed were analyzed after natural log-transformation. […]

[1] = Day 7 after single IV dose up to 1000 mg iron
[2] = Day 14 after single IV dose up to 1000 mg iron
[3] = Day 35 after single IV dose up to 1000 mg iron

Row | Substance | Phosphorus, Visit, Mean (Phosphorus; [1]) [mg/dL] | Phosphorus, Change to Visit, Max (Phosphorus; Day 7 vs baseline) [mg/dL] | Phosphorus, Change to Visit, Mean (Phosphorus; Day 7 vs baseline) [mg/dL] | Phosphorus, Change to Visit, Median (Phosphorus; Day 7 vs baseline) [mg/dL] | Phosphorus, Change to Visit, Min (Phosphorus; Day 7 vs baseline) [mg/dL] | Phosphorus, Visit, Mean (Phosphorus; [2]) [mg/dL] | Phosphorus, Change to Visit, Max (Phosphorus; Day 14 vs baseline) [mg/dL] | Phosphorus, Change to Visit, Mean (Phosphorus; Day 14 vs baseline) [mg/dL] | Phosphorus, Change to Visit, Median (Phosphorus; Day 14 vs baseline) [mg/dL] | Phosphorus, Change to Visit, Min (Phosphorus; Day 14 vs baseline) [mg/dL] | Phosphorus, Visit, Mean (Phosphorus; [3]) [mg/dL] | Phosphorus, Change to Visit, Max (Phosphorus; Day 35 vs baseline) [mg/dL] | Phosphorus, Change to Visit, Mean (Phosphorus; Day 35 vs baseline) [mg/dL] | Phosphorus, Change to Visit, Median (Phosphorus; Day 35 vs baseline) [mg/dL] | Phosphorus, Change to Visit, Min (Phosphorus; Day 35 vs baseline) [mg/dL] | FGF-23 C-Terminal, EDTApl-RUO, Visit, Mean (FGF-23 C-Terminal; Day 1) [RU/mL] | FGF-23 C-Terminal, EDTApl-RUO, Change to Visit, Mean (FGF-23 C-Terminal; Day 1 vs baseline) [RU/mL] | FGF-23 C-Terminal, EDTApl-RUO, Visit, Mean (FGF-23 C-Terminal; Day 7) [RU/mL] | FGF-23 C-Terminal, EDTApl-RUO, Change to Visit, Mean (FGF-23 C-Terminal; Day 7 vs baseline) [RU/mL] | FGF-23 C-Terminal, EDTApl-RUO, Visit, Mean (FGF-23 C-Terminal; Day 14) [RU/mL] | further results
1 | iron dextran [reference compound] | 3.55 | 1.2 | -0.07 | -0.1 | -0.9 | 3.58 | 1.4 | -0.06 | 0.1 | -1.5 | 3.55 | 1.3 | -0.08 | -0.1 | -1.3 | 151.60 | −716.03 | 114.13 | −682.42 | 107.39 | FGF-23 C-Terminal, EDTApl-RUO, Change to Visit, Mean (FGF-23 C-Terminal; Day 14 vs baseline): −733.96 RU/mL; FGF-23 C-Terminal, EDTApl-RUO, Visit, Mean (FGF-23 C-Terminal; Day 35): 360.71 RU/mL; FGF-23 C-Terminal, EDTApl-RUO, Change to Visit, Mean (FGF-23 C-Terminal; Day 35 vs baseline): −683.57 RU/mL; FGF-23 C-Terminal, EDTApl-RUO, Visit, Mean (FGF-23 C-Terminal; Minimum post-baseline value): 94.00 RU/mL; FGF-23 C-Terminal, EDTApl-RUO, Change to Visit, Mean (FGF-23 C-Terminal; Minimum value vs baseline): −732.67 RU/mL; Intact FGF23, Change from baseline (intact FGF23 (iFGF23); Day 1): −13.4%; Intact FGF23, Change from baseline (intact FGF23 (iFGF23); Day 7): −4.4%; Intact FGF23, Change from baseline (intact FGF23 (iFGF23); Day 14): −1.3%; Intact FGF23, Change from baseline (intact FGF23 (iFGF23); Day 35): −9.3%; effect on iFGF23 levels (intact FGF23 (iFGF23)): no significant changes; also recorded: but not iron dextran induced a significant increase; Intact FGF23, Day 1 (intact FGF23 (iFGF23)): 24.6 ± 1.9 pg/mL; Intact FGF23, Day 7 (intact FGF23 (iFGF23)): 27.5 ± 1.7 pg/mL; Intact FGF23, Day 14 (intact FGF23 (iFGF23)): 28.4 ± 2.1 pg/mL; Intact FGF23, Day 35 (intact FGF23 (iFGF23)): 28.3 ± 1.7 pg/mL
2 | polynuclear iron (III)-hydroxide 4(R)-(poly-(1→4)-O-α-glucopyranosyl)-oxy-2(R),3(S),5(R),6-tetrahydroxy-hexanoate [FCM] | 2.51 | 0.7 | -0.87 | -0.8 | -2.3 | 3.42 | 0.7 | -0.92 | -0.7 | -3.5 | 3.92 | 1.0 | -0.38 | -0.2 | -1.9 | 176.80 | −648.30 | 165.23 | −699.73 | 170.12 | FGF-23 C-Terminal, EDTApl-RUO, Change to Visit, Mean (FGF-23 C-Terminal; Day 14 vs baseline): −584.59 RU/mL; FGF-23 C-Terminal, EDTApl-RUO, Visit, Mean (FGF-23 C-Terminal; Day 35): 141.56 RU/mL; FGF-23 C-Terminal, EDTApl-RUO, Change to Visit, Mean (FGF-23 C-Terminal; Day 35 vs baseline): −692.29 RU/mL; FGF-23 C-Terminal, EDTApl-RUO, Visit, Mean (FGF-23 C-Terminal; Minimum post-baseline value): 98.73 RU/mL; FGF-23 C-Terminal, EDTApl-RUO, Change to Visit, Mean (FGF-23 C-Terminal; Minimum value vs baseline): −684.57 RU/mL; Intact FGF23, Change from baseline (intact FGF23 (iFGF23); Day 1): 128.0%; Intact FGF23, Change from baseline (intact FGF23 (iFGF23); Day 7): 91.8%; Intact FGF23, Change from baseline (intact FGF23 (iFGF23); Day 14): 59.1%; Intact FGF23, Change from baseline (intact FGF23 (iFGF23); Day 35): 2.0%; effect on iFGF23 levels (intact FGF23 (iFGF23)): increased significantly by day 1; also recorded: significant increase; Intact FGF23, Day 1 (intact FGF23 (iFGF23)): 65.2 ± 8.0 pg/mL; Intact FGF23, Day 7 (intact FGF23 (iFGF23)): 54.9 ± 18.0 pg/mL; Intact FGF23, Day 14 (intact FGF23 (iFGF23)): 45.8 ± 6.9 pg/mL; Intact FGF23, Day 35 (intact FGF23 (iFGF23)): 28.1 ± 2.9 pg/mL; iFGF23 in FCM subjects who developed serum phosphate<2.0 mg/dL vs the remaining (intact FGF23 (iFGF23); stratified analysis): greater iFGF23 by day 1 that persisted through day 14
